In patent publication US20220370416A1, “COMPOUNDS AND METHODS FOR TARGETED DEGRADATION OF KRAS” (Arvinas Operations, Inc., priority 2020, published 2022):

Columns and labels:
HiBit-KRAS^G12C [1] = biological target: T1, HiBit-KRAS^G12C (Homo sapiens, UniProt P01116, G12C); test: HiBit degradation assay in MiaPaCa-2 HiBit-KRas^G12C cells; type: cell-based; conditions: 24 hours; for KRas^G12C-HiBiT (MiaPaCa; 0.5% DMSO) DMax / Dmax: maximum degradation
How it was run: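 DC50 and Dmax come from 4-parameter fits of DMSO-normalized HiBit luminescence after 24 hours' exposure at 37° C to 10 μM–20 nM compound in 0.1% or 0.5% DMSO. Cells: MiaPaCa-2 carrying one endogenously HiBit-tagged KRAS^G12C allele; concentrations causing ≥50% […] viability loss (alamar blue) excluded.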

HiBit-KRAS^G12C [2] = biological target: T1, HiBit-KRAS^G12C; test: HiBit degradation assay in SW1573 HiBit-KRas^G12C cells; type: cell-based; set-up: expressed in transfected cells; host or cells: SW1573 (clone E6), modified pcDNA3.1 vector, TK promoter; conditions: 24 hours
How it was run: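 HiBit-KRAS G12C degradation was measured after a 24 h compound exposure (titrated 10 μM–20 nM) in engineered SW1573 cells. Lytic HiBit luminescence, expressed relative to DMSO controls, yielded DC50 and Dmax from 4-parameter fits. Concentrations causing ≥50% loss in alamar blue viability were omitted as cytotoxic.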

[3] = MiaPaCa-2 HiBit-KRas^G12C cells, 0.5% DMSO
[4] = read-out: KRas^G12C-HiBiT (MiaPaCa; 0.5% DMSO) IC50, MiaPaCa-2 HiBit-KRas^G12C cells, 0.5% DMSO
[5] = SW1573, SW1573 HiBit-KRas^G12C, 0.5% DMSO, read-out: KRas^G12C-HiBiT (SW1573; 0.5% DMSO) Dmax**
[6] = read-out: KRas^G12C-HiBiT (SW1573; 0.5% DMSO) IC50***, SW1573 HiBit-KRas^G12C, 0.5% DMSO
[7] = SW1573 HiBit-KRas^G12C, 0.1% DMSO, read-out: KRas^G12C-HIBit (SW1573; 0.1% DMSO) DC50*
[8] = MIA PaCa-2, MiaPaCa-2 HiBit-KRas^G12C cells, 0.5% DMSO, read-out: KRas^G12C-HiBiT (MiaPaCa; 0.5% DMSO) DMax

T1 sequence (P01116 1-186 isoform P01116-2 G12C limits assumed): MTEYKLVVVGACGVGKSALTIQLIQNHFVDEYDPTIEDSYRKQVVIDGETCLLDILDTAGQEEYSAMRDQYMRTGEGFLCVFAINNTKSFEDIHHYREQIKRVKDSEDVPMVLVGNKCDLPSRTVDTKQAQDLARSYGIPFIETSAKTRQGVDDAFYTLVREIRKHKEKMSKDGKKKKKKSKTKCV

| KRas^G12C-HiBiT (MiaPaCa; 0.5% DMSO) DMax (HiBit-KRAS^G12C [1]; [3]) | DC50 (HiBit-KRAS^G12C [1]; [4]) [nM] | Dmax (HiBit-KRAS^G12C [2]; [5]) [%] | DC50 (HiBit-KRAS^G12C [2]; [6]) [nM] | KRas^G12C-HiBiT (SW1573; 0.5% DMSO) Dmax** (HiBit-KRAS^G12C [2]; SW1573 HiBit-KRas^G12C, 0.5% DMSO) | Dmax (HiBit-KRAS^G12C [1]; [8]) [%] | DC50 (HiBit-KRAS^G12C [1]; read-out: KRas^G12C-HiBiT (MiaPaCa; 0.1% DMSO) IC50, MiaPaCa-2 HiBit-KRas^G12C cells, 0.1% DMSO) [nM] | Dmax (HiBit-KRAS^G12C [2]; SW1573, SW1573 HiBit-KRas^G12C, 0.1% DMSO, read-out: KRas^G12C-HiBit (SW1573; 0.1% DMSO) Dmax**) [%] | Structure (SMILES) | Dmax (HiBit-KRAS^G12C [1]; MIA PaCa-2, read-out: KRas^G12C-HiBiT (MiaPaCa; 0.1% DMSO) DMax, MiaPaCa-2 HiBit-KRas^G12C cells, 0.1% DMSO) [%] | Dmax (HiBit-KRAS^G12C [2]; SW1573, read-out: KRas^G12C-HiBit (SW1573; 0.1% DMSO) Dmax**, SW1573 HiBit-KRas^G12C, 0.1% DMSO) [%] | DC50 (HiBit-KRAS^G12C [2]; [7]) [nM] |
| --- | --- | --- | --- | --- | --- | --- | --- | --- | --- | --- | --- |
| B (35 < B < 70) | 100 to 1000 | > 70 | 100 to 1000 | – | – | – | – | C=CC(=O)N1CCN(c2nc(OCCN3CCC(COc4cc([C@H](C(=O)N5C[C@H](O)C[C@H]5C(=O)N[C@@H](C)c5ccc(-c6scnc6C)cc5)C(C)C)on4)CC3)nc3c(F)c(-c4cc(O)cc5ccccc45)c(Cl)cc23)CC1 (atropisomer, axis not shown) [Compound 147, (2S,4R)-1-[(2R)-2-(3-{[1-(2-{[6-chloro-8-fluoro-7-(3-hydroxynaphthalen-1-yl)-4-[4-(prop-2-enoyl)piperazin-1-yl]quinazolin-2-yl]oxy}ethyl)piperidin-4-yl]methoxy}-1,2-oxazol-5-yl)-3-methylbutanoyl]-4-hydroxy-N-[(1S)-1-[4-(4-methyl-1,3-thiazol-5-yl)phenyl]ethyl]pyrrolidine-2-carboxamide] | – | – | – |
| – | – | – | – | – | – | – | – | C=CC(=O)N1CCN(c2nc(O[C@H](C)CN3CC(CN4CCN(CC(=O)N[C@H](C(=O)N5C[C@H](O)C[C@H]5C(=O)N[C@@H](C)c5ccc(-c6scnc6C)cc5)C(C)(C)C)CC4)C3)nc3c(F)c(-c4cc(O)cc5ccccc45)c(Cl)cc23)CC1 [Compound 59, (2S,4R)-1-[(2S)-2-{2-[4-({1-[(2R)-2-{[6-chloro-8-fluoro-7-(3-hydroxynaphthalen-1-yl)-4-[4-(prop-2-enoyl)piperazin-1-yl]quinazolin-2-yl]oxy}propyl]azetidin-3-yl}methyl)piperazin-1-yl]acetamido}-3,3-dimethylbutanoyl]-4-hydroxy-N-[(1S)-1-[4-(4-methyl-1,3-thiazol-5-yl)phenyl]ethyl]pyrrolidine-2-carboxamide] | < 35 | 35 to 70 | > 1000 |
| A (A ≥ 70) | 100 to 1000 | – | < 100 | A (A ≥ 70) | – | – | – | C=CC(=O)N1CCN(c2nc(OCCN3CCC4(CC3)CN(c3cc([C@H](C(=O)N5C[C@H](O)C[C@H]5C(=O)N[C@@H](C)c5ccc(-c6scnc6C)cc5)C(C)C)on3)C4)nc3c(F)c(-c4cc(O)cc5ccccc45)c(Cl)cc23)C[C@@H]1CC#N [Compound 139, (2S,4R)-1-[(2R)-2-(3-{7-[2-({6-chloro-4-[(3S)-3-(cyanomethyl)-4-(prop-2-enoyl)piperazin-1-yl]-8-fluoro-7-(3-hydroxynaphthalen-1-yl)quinazolin-2-yl}oxy)ethyl]-2,7-diazaspiro[3.5]nonan-2-yl}-1,2-oxazol-5-yl)-3-methylbutanoyl]-4-hydroxy-N-[(1S)-1-[4-(4-methyl-1,3-thiazol-5-yl)phenyl]ethyl]pyrrolidine-2-carboxamide] | – | – | – |
| – | < 100 | > 70 | < 100 | – | > 70 | – | – | C=C(F)C(=O)N1CCN(c2nc(OCCN3CCC(C)(COc4cc([C@H](C(=O)N5C[C@H](O)C[C@H]5C(=O)N[C@@H](C)c5ccc(-c6scnc6C)cc5)C(C)C)on4)CC3)nc3c(F)c(-c4cc(O)cc5ccccc45)c(Cl)cc23)C[C@@H]1CC#N (atropisomer, axis not shown) [Compound 123, (2S,4R)-1-[(2R)-2-[3-({1-[2-({6-chloro-4-[(3S)-3-(cyanomethyl)-4-(2-fluoroprop-2-enoyl)piperazin-1-yl]-8-fluoro-7-(3-hydroxynaphthalen-1-yl)quinazolin-2-yl}oxy)ethyl]-4-methylpiperidin-4-yl}methoxy)-1,2-oxazol-5-yl]-3-methylbutanoyl]-4-hydroxy-N-[(1S)-1-[4-(4-methyl-1,3-thiazol-5-yl)phenyl]ethyl]pyrrolidine-2-carboxamide] | – | – | – |
| – | – | 35 to 70 | – | – | < 35 | > 1000 | < 35 | C=CC(=O)N1CCN(c2nc(OCCN3CCC(OCCOCCOCC(=O)N[C@H](C(=O)N4C[C@H](O)C[C@H]4C(=O)N[C@@H](C)c4ccc(-c5scnc5C)cc4)C(C)(C)C)CC3)nc3c(F)c(-c4cc(O)cc5ccccc45)c(Cl)cc23)CC1 [Compound 60, (2S,4R)-1-[(2S)-2-{2-[2-(2-{[1-(2-{[6-chloro-8-fluoro-7-(3-hydroxynaphthalen-1-yl)-4-[4-(prop-2-enoyl)piperazin-1-yl]quinazolin-2-yl]oxy}ethyl)piperidin-4-yl]oxy}ethoxy)ethoxy]acetamido}-3,3-dimethylbutanoyl]-4-hydroxy-N-[(1S)-1-[4-(4-methyl-1,3-thiazol-5-yl)phenyl]ethyl]pyrrolidine-2-carboxamide] | – | – | 100 to 1000 |
